Key:
[1] = molecular target: acyl-CoA: cholesterol acyltransferase (ACAT); experiment: in vitro ACAT inhibition: formation of radiolabeled cholesterol oleate from radiolabeled oleic acid in rabbit intestinal microsomes; assay type: biochemical; settings: tissue preparation containing rabbit intestinal microsomes
Experimental: The ability of representative compounds of the present invention to inhibit ACAT was measured using an in vitro test more fully described in F. J. Field and R. G. Salone, Biochemica et Biophysica 712:557-570 (1982). The test assesses the ability of a test compound to inhibit the acylation of cholesterol by oleic acid by measuring the amount of radiolabeled cholesterol oleate formed from radiolabeled oleic acid in a tissue preparation containing rabbit intestinal microsomes.
The data appear in Table 1 where they are expressed in IC50 values; i.e., the concentration of test compound required to inhibit 50% […] of the enzyme.

male Sprague-Dawley rats = experiment: in vivo screen designated APCC: blood cholesterol in rats fed the PCC diet; settings: blood cholesterol vs vehicle (CMC/Tween); dosed at 4 PM, PCC diet with 1% or 0.5% cholic acid overnight, sacrificed at 8 AM; dose not given
Description: In one in vivo screen designated APCC. male Sprague-Dawley rats (200 to 225 g) were randomly divided into treatment groups and dosed at 4 PM with either vehicle (CMCTween) or suspensions of compounds in vehicle. The normal chow diet was then replaced with the PCC diet with either 1% or 0.5^00 cholic acid, as indicated. The rats consumed this diet ad libitum during the night and were sacrificed at 8 AM to obtain blood samples for cholesterol analysis using standard procedures. Statistical differences between mean cholesterol values for the same vehicle were determined using analysis of variance followed by Fisher's least significant test.

| Structure (SMILES) | IC50 [1] | % Change (mg/dl) (male Sprague-Dawley rats) |
| --- | --- | --- |
| CC(C)c1cccc(C(C)C)c1NC(=O)NCC(NC(=O)c1ccccc1)c1ccccc1 (racemic) [Example 4, (±)-N-[2-[[[[2,6-bis(1-methylethyl)phenyl]amino]carbonyl]amino]-1-phenylethyl]benzenecarboxamide] | 530 nM |  |
| CC(C)c1cccc(C(C)C)c1NC(=O)NCC(NCc1ccccc1)c1ccccc1 (racemic) [Example 5, (±)-N-(2,6-bis(1-methylethyl)phenyl]-N'-[2-phenylmethylamino)-2-phenylethyl]urea] | 51 nM | -53% |
| CCCCCCCCCCCCNCC(CNC(=O)Nc1c(C(C)C)cccc1C(C)C)c1ccccc1 (racemic) [Example 11, (±)-N-[2,6-bis(1-methylethyl)phenyl]-N'-[3-dodecylamino-2-phenylpropyl]urea] |  | -54% |
| CC(C)c1cccc(C(C)C)c1NC(=O)NCC(NC(=O)c1ccccn1)c1ccccc1 (racemic) [Example 12, (±)-N-[2-[[[[2,6-bis(1-methylethyl)phenyl]amino]carbonyl]amino]-1-phenethyl-2-pyridinylarnide] | 80 nM |  |

Now from value to compound, other results behind:

| IC50 [1] | Structure (SMILES) | % Change (mg/dl) (male Sprague-Dawley rats) |
| --- | --- | --- |
| 150 nM | CCCCCCC(=O)NC(CNC(=O)Nc1c(C(C)C)cccc1C(C)C)c1ccccc1 (racemic) [Example 7, (±)-N-[2-[[[[2,6-bis(1-methylethyl)phenyl]amino]carbonyl]amino]-1-phenylethyl]heptanamide] |  |
| 110 nM | CCCCCCCNC(CNC(=O)Nc1c(C(C)C)cccc1C(C)C)c1ccccc1 (racemic) [Example 8, (±)-N-[2,6-bis(1-methylethyl)phenyl]-N'-[2-heptylamino-2-phenylethyl]urea] | -25% |
| 380 nM | CC(C)c1cccc(C(C)C)c1NC(=O)NCC(NC(=O)CCCCCBr)c1ccccc1 (racemic) [Example 9, (±)-N-[2-[[[[2,6-bis(1-methylethy))phenyl]amino]carbonyl]amino]-1-phenylethyl]-6-bromohexanamide] | -36% |
| 390 nM | COCCCCCC(=O)NC(CNC(=O)Nc1c(C(C)C)cccc1C(C)C)c1ccccc1 (racemic) [Example 10, (±)-N-[2-[[[[2,6-bis(1-methylethyl)phenyl]amino]carbonyl]amino]-1-phenylethyl]-6-methoxyhexanamide] |  |

From patent EP0432442A1, “ACAT inhibitors” (priority 1989, dated 1991)
